These results are taken from patent US9499550B2 (BRISTOL-MYERS SQUIBB COMPANY, priority 2012, dated 2016).

In general, EC50 refers to the concentration giving half of the maximal effect.

Structures are written as SMILES.

Assay [1] has as its system HCV genotype 1b (Con1) replicon in HUH-7 cells. The experiment in a line: HCV replicon luciferase reporter assay, genotype 1b. The assay is classed as cell-based. The following applies: Hepatitis C virus, Huh-7, 72 h, HCV genotype 1b replicon luciferase assay, 3 days incubation, range class, read-out: LE_1b (EC50, range). The method, boiled down: (§1)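 Replicon inhibition for both genotypes was measured as Renilla luciferase signal (EnduRen, 7.5 μM final, 2 h) after 3-day, 37° C exposure of replicon-bearing HUH-7 cells in 4% FCS DMEM, 0.5% DMSO. The 1b construct carries S1179I; the 1a H77 construct carries P1496L and S2204I. Twenty-point, 3-fold dilutions were fitted four-parametrically for EC50, and CC50 was taken from multiplexed Cell Titer-Blue.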

The test system of assay [2] is HCV genotype 1a (H77 strain) replicon in HUH-7 cells. The experiment in a line: HCV replicon luciferase reporter assay, genotype 1a. The assay is classed as cell-based. The following applies: Hepatitis C virus, Huh-7, 72 h, HCV genotype 1a replicon luciferase assay, 3 days incubation, range class, read-out: LE_1a (EC50, range). The method, boiled down:
as §1
For orientation: A replicon is a self-replicating genome or part of one, used to study replication in cells.

Regarding `COc1ccc2c(O[C@@H]3C[C@H]4C(=O)N[C@]5(C(=O)NS(=O)(=O)C6(CF)CC6)C[C@H]5/C=C\CC[C@H](C)C[C@@H](C)[C@H](NC(=O)OC(C)(C)C)C(=O)N4C3)nc(N3CCCC3)nc2c1` [Compound 3013, tert-butyl ((2R,6S,7R,9S,13aS,14aR,16aS,Z)-14a-(((1-(fluoromethyl)cyclopropyl)sulfonyl)carbamoyl)-2-((7-methoxy-2-(pyrrolidin-1-yl)quinazolin-4-yl)oxy)-7,9-dimethyl-5,16-dioxo-1,2,3,5,6,7,8,9,10,11,13a,14,14a,15,16,16a-hexadecahydrocyclopropa[e]pyrrolo[1,2-a][1,4]diazacyclopentadecin-6-yl)carbamate], the EC50 in assay [1] and in assay [2] was 4.82 to 103 nM in each case.
On to `COc1ccc2c(O[C@@H]3C[C@H]4C(=O)N[C@]5(C(=O)NS(=O)(=O)C6(CF)CC6)C[C@H]5/C=C\CC[C@@H](C)C[C@@H](C)[C@H](NC(=O)OC(C)(C)C)C(=O)N4C3)nc(N3CCCC3)nc2c1` [Compound 3014, tert-butyl ((2R,6S,7R,9R,13aS,14aR,16aS,Z)-14a-(((1-(fluoromethyl)cyclopropyl)sulfonyl)carbamoyl)-2-((7-methoxy-2-(pyrrolidin-1-yl)quinazolin-4-yl)oxy)-7,9-dimethyl-5,16-dioxo-1,2,3,5,6,7,8,9,10,11,13a,14,14a,15,16,16a-hexadecahydrocyclopropa[e]pyrrolo[1,2-a][1,4]diazacyclopentadecin-6-yl)carbamate], for which the figures for the EC50 in assay [1] and in assay [2] were < 5.46 nM and 4.82 to 103 nM, respectively.
As to `COc1ccc2c(O[C@@H]3C[C@H]4C(=O)N[C@]5(C(=O)NS(=O)(=O)C6(CF)CC6)C[C@H]5/C=C\CC[C@@H](C)C[C@@H](C)[C@H](NC(=O)OC(C)(C)C)C(=O)N4C3)nc(OC)nc2c1` [Compound 3015, tert-butyl ((2R,6S,7R,9R,13aS,14aR,16aS,Z)-2-((2,7-dimethoxyquinazolin-4-yl)oxy)-14a-(((1-(fluoromethyl)cyclopropyl)sulfonyl)carbamoyl)-7,9-dimethyl-5,16-dioxo-1,2,3,5,6,7,8,9,10,11,13a,14,14a,15,16,16a-hexadecahydrocyclopropa[e]pyrrolo[1,2-a][1,4]diazacyclopentadecin-6-yl)carbamate], the EC50 in assay [1] and in assay [2] was < 5.46 nM throughout.
With `COc1ccc2c(O[C@@H]3C[C@H]4C(=O)N[C@]5(C(=O)NS(=O)(=O)C6CC6)C[C@H]5/C=C\CC[C@H](C)C[C@@H](C)[C@H](NC(=O)OC(C)(C)C)C(=O)N4C3)nc(-c3ccc(OC(C)C)cc3)nc2c1` [Compound 3016, tert-butyl ((2R,6S,7R,9S,13aS,14aR,16aS,Z)-14a-((cyclopropylsulfonyl)carbamoyl)-2-((2-(4-isopropoxyphenyl)-7-methoxyquinazolin-4-yl)oxy)-7,9-dimethyl-5,16-dioxo-1,2,3,5,6,7,8,9,10,11,13a,14,14a,15,16,16a-hexadecahydrocyclopropa[e]pyrrolo[1,2-a][1,4]diazacyclopentadecin-6-yl)carbamate], the EC50 in assay [1] and in assay [2] was < 5.46 nM in each case.
With `COc1ccc2c(O[C@@H]3C[C@H]4C(=O)N[C@]5(C(=O)NS(=O)(=O)C6CC6)C[C@H]5/C=C\CC[C@@H](C)C[C@@H](C)[C@H](NC(=O)OC(C)(C)C)C(=O)N4C3)nc(-c3ccc(OC(C)C)cc3)nc2c1` [Compound 3017, tert-butyl ((2R,6S,7R,9R,13aS,14aR,16aS,Z)-14a-((cyclopropylsulfonyl)carbamoyl)-2-((2-(4-isopropoxyphenyl)-7-methoxyquinazolin-4-yl)oxy)-7,9-dimethyl-5,16-dioxo-1,2,3,5,6,7,8,9,10,11,13a,14,14a,15,16,16a-hexadecahydrocyclopropa[e]pyrrolo[1,2-a][1,4]diazacyclopentadecin-6-yl)carbamate], the EC50 in assay [1] and in assay [2] was < 5.46 nM each time.
